# Measured values from patent publication US12370170B2, “Composition comprising naphthoquinone-based compound as active ingredient, for preventing or ameliorating fatigue, cachexia, pain, cognitive decline and hematopoietic stem cell reduction which are side effects related to anticancer drug treatment” (NADIANBIO LTD., priority 2016, dated 2025).
# Tests used:
# Assay type in all cases: in vivo, C57BL/6 mice
# [1] = system: inflammatory cytokines TNF-α, IL-1β, IL-6 and IL-17; assay: Plasma inflammatory cytokines by ELISA in adriamycin animal model; settings: adriamycin 4 mg/kg/day i.p. ×3; compound 20 mg/kg oral daily from 3 days before; 4 days after final adriamycin; vs adriamycin group
# Method: (§1) In this invention, 11 weeks old C57BL/6 mice were used. All the mice used in the experiments of the invention were raised in an aseptic animal room at the temperature of 22˜26 L with the humidity of 55˜60%. The mice were allowed to take general solid feed (SAMTACO Co., Ltd., Korea) and water freely. The mice were adapted for 1 week before the experiment. All the experiments were performed after obtaining approval from the clinical trial management committee in accordance with the laboratory animal care and ethics regulations of Wonkwang University. The mouse animal model of the present invention was treated with different anticancer drugs. […]
# Particularly, plasma was isolated from the adriamycin animal model prepared by the same manner as described in Example 4, and the inflammatory cytokines TNF-α (R&D Systems, MTA00B), IL-1β (R&D Systems, MLB00C), IL-6 (R&D Systems, M6000B) and IL-17 (R&D Systems, M1700) were analyzed by ELISA (enzyme-linked immunosorbent assay).
# To investigate the regulatory effect of β-lapachone on adriamycin induced inflammatory cytokines, plasma was isolated from the adriamycin animal model prepared by the same manner as described in Example 4, and the inflammatory cytokines TNF-α, IL-1β, IL-6 and IL-17 were analyzed by ELISA.
# [2] = system: inflammatory cytokines TNF-α, IL-1β, IL-6 and IL-17; assay: Plasma inflammatory cytokines by ELISA in 3× and 6×ACP animal model; settings: dunnione 20 mg/kg oral daily from 3 days before, 3 days after ACP
# Method: as §1, with “drugs. Particularly, one kind of anticancer drug was administered intraperitoneally one time or more, or several kinds of anticancer drugs were administered once or more times or at different concentrations, leading to the establishment of the animal model of the invention.” for “drugs.”
# Plasma was isolated from the 3× and 6×ACP animal model prepared by the same manner as described in Example 7, and the inflammatory cytokines TNF-α, IL-1β, IL-6 and IL-17 were analyzed by ELISA.
# [3] = system: orexin; assay: Orexin protein in hypothalamus by ELISA, 4×ACP animal model; settings: dunnione 80 mg/kg oral daily from 3 days before, 2 days after ACP
# Method: as §1, with “drugs. Particularly, one kind of anticancer drug was administered intraperitoneally one time or more, or several kinds of anticancer drugs were administered once or more times or at different concentrations, leading to the establishment of the animal model of the invention.” for “drugs.”
# To analyze orexin protein in the 4×ACP animal model prepared by the same manner as described in Example 8, the hypothalamus of the mouse was extracted, followed by the preparation of a homogenate. Orexin (MyBioSource, MBS2505504) was analyzed by ELISA to investigate the regulatory effect of β-lapachone on orexin.
# [4] = system: MAFbx, MuRF1 and Bnip3 mRNAs; assay: Muscle loss related gene expression in cyclophosphamide induced animal model; settings: cyclophosphamide 350 mg/kg total; dunnione 20 mg/kg oral; vs cyclophosphamide group
smiles,measurement,setting,value
"CC1OC2=C(C(=O)C(=O)c3ccccc32)C1(C)C (centres unmarked) [dunnione, 2,3-dihydro-2,3,3-trimethyl naphtho [1,2-b]furan-4,5-dione]","level of inflammatory cytokines (TNF-α, IL-1β, IL-6, IL-17) in plasma",[1],significantly reduced
same,"level of inflammatory cytokines (TNF-α, IL-1β, IL-6, IL-17) in plasma",[2]; 3×ACP i.p. once,significantly inhibited
same,"level of inflammatory cytokines (TNF-α, IL-1β, IL-6, IL-17) in plasma",[2]; 6×ACP i.p. once,significantly inhibited
same,orexin reduction in the hypothalamus,[3],recovered significantly almost to the same level of the control group
same,"expressions of MAFbx, MuRF1 and Bnip3 mRNAs in muscle",[4],significantly reduced
